Structures can show the parent of a compound that is named as a salt. Non-standard residues stand in square brackets, D forms with d. Residues, ends and D or L forms follow the SMILES beside them. *: point of attachment. Dmt = Cc1cc(O)cc(C)c1C[C@H](N)C(=O)O; dTic = O=C(O)[C@H]1Cc2ccccc2CN1; NHBn = c1ccc(CN*)cc1
Assays:
human δ opioid receptor [1] = target: T1, human δ opioid receptor (Homo sapiens, UniProt P41143); assay: Stimulation of [35S]GTPγS binding, δ; format: biochemical; conditions: for Emax: read-out: Agonism δ Emax (%)
human μ opioid receptor [2] = target: T2, human μ opioid receptor (Homo sapiens, UniProt P35372); assay: Stimulation of [35S]GTPγS binding, μ; format: biochemical; conditions: for Emax: read-out: Agonism μ Emax (%)
human μ opioid receptor [3] = target: T2, human μ opioid receptor; assay: Inhibition of DAMGO-stimulated [35S]GTPγS binding, μ; format: biochemical; conditions: for Antagonism μ Imax (%): in presence of 200 nM DAMGO, NI = No inhibition
human δ opioid receptor [4] = target: T1, human δ opioid receptor; assay: Inhibition of SNC 80-stimulated [35S]GTPγS binding, δ; format: biochemical; conditions: in presence of 10 nM SNC 80; NI = No inhibition
MVD = conditions: read-out: MVD EC50; cited from earlier work
GPI = conditions: read-out: GPI EC50; cited from earlier work

T2 sequence (P35372 whole entry): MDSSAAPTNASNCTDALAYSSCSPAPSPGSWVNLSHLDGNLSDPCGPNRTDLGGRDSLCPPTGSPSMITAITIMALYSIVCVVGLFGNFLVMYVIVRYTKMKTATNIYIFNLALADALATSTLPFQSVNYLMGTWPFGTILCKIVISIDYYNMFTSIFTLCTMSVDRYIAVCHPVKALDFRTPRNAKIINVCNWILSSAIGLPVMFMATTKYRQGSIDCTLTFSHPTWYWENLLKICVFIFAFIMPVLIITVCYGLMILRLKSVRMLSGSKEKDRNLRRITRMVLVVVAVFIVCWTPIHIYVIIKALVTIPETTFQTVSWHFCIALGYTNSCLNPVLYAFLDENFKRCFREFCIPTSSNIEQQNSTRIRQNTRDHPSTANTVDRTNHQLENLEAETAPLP
T1 sequence (P41143 whole entry): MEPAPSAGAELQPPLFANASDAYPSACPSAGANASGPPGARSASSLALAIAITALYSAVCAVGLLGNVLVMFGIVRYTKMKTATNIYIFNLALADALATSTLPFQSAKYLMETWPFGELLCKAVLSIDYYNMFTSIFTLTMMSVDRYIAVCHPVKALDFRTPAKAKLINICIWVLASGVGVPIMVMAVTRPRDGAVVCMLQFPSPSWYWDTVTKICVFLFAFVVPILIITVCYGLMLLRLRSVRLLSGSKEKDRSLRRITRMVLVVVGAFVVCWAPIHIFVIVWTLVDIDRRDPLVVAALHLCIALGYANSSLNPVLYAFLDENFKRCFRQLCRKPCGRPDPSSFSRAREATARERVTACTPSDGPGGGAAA

Molecule `Cc1cc(O)cc(C)c1C[C@H](N)C(=O)N1Cc2ccccc2C[C@@H]1C(=O)NCC(=O)NCc1ccccc1` [Compound 2, TFA·H-Dmt-D-Tic-Gly-NH-Bzl] (H-[Dmt]-[dTic]-Gly-NHBn) has an EC50 (human δ opioid receptor [1]) of 2.8 ± 0.6 nM, an Emax (human δ opioid receptor [1]) of 44 ± 6.1% and an EC50 (human μ opioid receptor [2]) of 0.9 ± 0.032 nM. It also gave an Emax (human μ opioid receptor [2]) of 92 ± 4%.

In the case of `Cc1cc(O)cc(C)c1C[C@H](N)C(=O)N1Cc2ccccc2C[C@H]1C(=O)NCC(=O)NCc1ccc(Cl)cc1` [Compound 3, TFA·H-Dmt-Tic-Gly-NH-Bzl(pCl)], the “Antagonism μ Imax (%)” value (human μ opioid receptor [3]) is reported as 43±3.3%, the “Antagonism δ Imax (%)” value (human δ opioid receptor [4]) is reported as 93±2.2% and the Emax (human δ opioid receptor [1]) is reported as 4.5 ± 0.85%. It also gave an EC50 (human μ opioid receptor [2]) of 33 ± 2.9 nM and an Emax (human μ opioid receptor [2]) of 52 ± 5.5%.

For `Cc1ccc(CNC(=O)CNC(=O)[C@@H]2Cc3ccccc3CN2C(=O)[C@@H](N)Cc2c(C)cc(O)cc2C)cc1` [Compound 4, TFA·H-Dmt-Tic-Gly-NH-Bzl(pMe)], the inhibition at 25 µM (human μ opioid receptor [3]; read-out: Antagonism μ inhibition of DAMGO-stimulated [35S]GTPγS binding (%)) was 65 ± 1.1%, the “Antagonism δ Imax (%)” value (human δ opioid receptor [4]) was 86±5.0% and the Emax (human δ opioid receptor [1]) was 0.4 ± 1.43%. The EC50 (human μ opioid receptor [2]) was 63 ± 3.5 nM and the Emax (human μ opioid receptor [2]) was 34 ± 6.4%.

In the case of `Cc1cc(O)cc(C)c1C[C@H](N)C(=O)N1Cc2ccccc2C[C@H]1C(=O)NCC(=O)NCc1ccc([N+](=O)[O-])cc1` [Compound 5, TFA·H-Dmt-Tic-Gly-NH-Bzl(pNO2)], the “Antagonism μ Imax (%)” value (human μ opioid receptor [3]) is reported as 74±6.9%, the “Antagonism δ Imax (%)” value (human δ opioid receptor [4]) is reported as 79±3.8% and the Emax (human δ opioid receptor [1]) is reported as 3.1 ± 0.43%. For the same molecule, the EC50 (human μ opioid receptor [2]) was 61 ± 15 nM and the Emax (human μ opioid receptor [2]) was 16 ± 2.5%.

For `Cc1cc(O)cc(C)c1C[C@H](N)C(=O)N1Cc2ccccc2C[C@H]1C(=O)NCC(=O)NCc1ccc(N)cc1` [Compound 6, 2TFA·H-Dmt-Tic-Gly-NH-Bzl(pNH2)], the “Antagonism δ Imax (%)” value (human δ opioid receptor [4]) was 78±2.7% and the Emax (human δ opioid receptor [1]) was 13 ± 1%.

With `Cc1cc(O)cc(C)c1C[C@H](N)C(=O)N1Cc2ccccc2C[C@H]1C(=O)NCC(=O)NC(c1ccccc1)c1ccccc1` [Compound 7, TFA·H-Dmt-Tic-Gly-NH-Benzhydryl] the “Antagonism δ Imax (%)” value (human δ opioid receptor [4]) was 100±7.4%, the Emax (human δ opioid receptor [1]) was -1.9 ± 0.17% and the EC50 (human μ opioid receptor [2]) was 4.8 ± 0.16 nM. The Emax (human μ opioid receptor [2]) was 45 ± 1.2%.

With `Cc1cc(O)cc(C)c1C[C@H](N)C(=O)N1Cc2ccccc2C[C@H]1C(=O)NCC(=O)N1CCc2ccccc2C1` [Compound 8, TFA·H-Dmt-Tic-Gly-1,2,3,4-tetrahydroisoquinoline] the “Antagonism δ Imax (%)” value (human δ opioid receptor [4]) was 99±3.3%, the Emax (human δ opioid receptor [1]) was -1.4 ± 0.14% and the Emax (human μ opioid receptor [2]) was 43 ± 6.6%.

For H-Dmt-Tic-Gly-Ph, the EC50 (MVD) is given as 3.02 nM and the EC50 (GPI) is given as 2.57 nM.
